What is called IC50 is the concentration that inhibits the measured activity by half. One may read the ED50 as the midpoint of the dose-response relation. A lower ED50 goes with an effect at a small dose.

The record followed here is US4424226A, “Pyridobenzodiazepinones, pharmaceutical compositions thereof and method of use thereof” (Dr. Karl Thomae GmbH, priority 1982, dated 1984).

The target in series [1] is muscarinic receptors (cerebral cortex). Description: Binding to muscarinic receptors, cerebral cortex (inhibition of specific 3H-NMS binding). To be noted: 0.3 nM 3H-NMS, 45 min, 30° C., pH 7.4, read-out: Receptor Binding Tests IC50, Cortex. On the set-up: species or system rat (Sprague-Dawley). As to the method:
(§1) 3. Studies of binding to muscarinic receptors: Determination of the IC50 value
(§2) The organ donors were male Sprague-Dawley rats with a body weight of from about 180 to 220 gm each. After the heart, stomach, and cerebral cortex had been removed, the remainder of the operation was carried out in ice-cold Hepes-HCl buffer (pH 7.4; 100 m molar NaCl, 10 m molar MgCl2). The smooth muscle of the fundus of the stomach was separated from the mucous membrane of the stomach and subjected to preliminary homogenization. The whole heart was cut up with scissors. All the organs were then homogenized in a Potter apparatus.
(§3) For the bonding test, the homogenized organs were diluted as follows:
(§4) The homogenized organ preparations were incubated at a specific concentration of the radioligand and with a series of concentrations of the non-radioactive test substances in an Eppendorf centrifuge tube at 30° C. The duration of incubation was 45 minutes. The substance 0.3 n molar ^3 H-N-methylscopolamine (^3 H-NMS) was used as the radioligand. After incubation had been brought to an end by centrifuging at 14,000 g, the radioactivity in the pellet was determined. […] The proportion of non-specific bonding was defined as the radioactivity which was bonded in the presence of 1μ molar quinuclidinylbenzylate. […] The IC50 values of the non-labelled test substances were determined graphically. […]

The test system of series [2] is muscarinic receptors. The series is described as follows: Oxotremorine test: protection against oxotremorine-induced lesions in the mucous membrane of the stomach. Format: in vivo, rat (female albino, Crl:COBS-CD (SD) BR). To be noted: i.v.; rats; oxotremorine 0.62 mg/kg i.v. after neostigmine 1 mg/kg oral; % animals without lesions. The procedure: (§5) Oxotremorine, a specific agonist for muscarinic receptors produces lesions in the mucous membrane of the stomach in rats and increases their secretion of saliva. This test method was chosen so that any selective activity of an antimuscarinic substance on the stomach could be identified.
(§6) Ten female albino rats (of the Crl:COBS-CD (SD) BR strain) with a body weight of from 120 to 150 gm apiece were used in each treatment group and were kept without food for 24 hours before the start of the test but given free access to drinking water.
(§7) To determine, in preliminary tests, the muscarinic effect of oxotremorine on each of the symptoms studied, a dosage/activity curve was drawn up with at least three dosages for each symptom.
(§8) When the antimuscarinic substances were tested, the dosage of oxotremorine which triggered the symptom in question in 90 to 100% of the animals in the preliminary tests was used.
Each antimuscarinic substance was administered intravenously in uniformly graduated doses 15 minutes before the oxotremorine was administered. Control groups were given corresponding quantities of the solvent and suspension agent instead of the test substance. Immediately after the oxotremorine was administered, the animals were placed in a glass case for 15 minutes and observed.
(§9) The ED50 values were determined using the method described by Litchfield and Wilcoxon (J. Pharmacol. Exp. Ther. 96, 99, 1949).
The effects on lesions of the mucous membrane of the stomach were evaluated as follows:
The lesions of the gastric mucous membrane were produced by intravenous injection of 0.62 mg/kg of oxotremorine 30 minutes after the oral administration of 1 mg/kg of neostigmine (a cholinesterase inhibitor). […] The protective effect of the test substances was expressed as the percentage inhibition (percentage of animals without lesions). The ED50 and ED70 values were determined using the method of LITCHFIELD and WILCOXON (see above).

Series [3] concerns muscarinic receptors. Description: Oxotremorine test: inhibition of oxotremorine-induced secretion of saliva. It counts as in vivo, rat (female albino, Crl:COBS-CD (SD) BR). To be noted: i.v., 15 min before oxotremorine 0.083 mg/kg i.v.; rats. The procedure:
as §5, §6, §7, §8
Secretion of saliva 0.083 mg/kg i.v.
Each antimuscarinic substance was administered intravenously in uniformly graduated doses 15 minutes before the oxotremorine was administered. Control groups were given corresponding quantities of the solvent and suspension agent instead of the test substance. […]
as §9

Series [4] deals with T1, muscarinic receptors (smooth muscle of the fundus of the stomach) (Rattus norvegicus).
T1 construct: The smooth muscle of the fundus of the stomach was separated from the mucous membrane of the stomach; from tissue; host or cells: smooth muscle of the stomach fundus of male Sprague-Dawley rats, homogenate
The series is described as follows: Binding to muscarinic receptors, smooth muscle of the fundus of the stomach (inhibition of specific 3H-NMS binding). Set-up: species or system rat (Sprague-Dawley). To be noted: 0.3 nM 3H-NMS, 45 min, 30° C., pH 7.4, read-out: Receptor Binding Tests IC50, Smooth Muscle Fundus of Stomach. The procedure: as §1, §2, §3
Smooth muscle of the fundus
as §4

For series [5], the target named is T2, muscarinic receptors (heart) (Rattus norvegicus, UniProt P10980).
T2 construct: The whole heart was cut up with scissors; All the organs were then homogenized in a Potter apparatus; from tissue; host or cells: whole heart of male Sprague-Dawley rats, homogenate
T2 sequence (P10980 1-466): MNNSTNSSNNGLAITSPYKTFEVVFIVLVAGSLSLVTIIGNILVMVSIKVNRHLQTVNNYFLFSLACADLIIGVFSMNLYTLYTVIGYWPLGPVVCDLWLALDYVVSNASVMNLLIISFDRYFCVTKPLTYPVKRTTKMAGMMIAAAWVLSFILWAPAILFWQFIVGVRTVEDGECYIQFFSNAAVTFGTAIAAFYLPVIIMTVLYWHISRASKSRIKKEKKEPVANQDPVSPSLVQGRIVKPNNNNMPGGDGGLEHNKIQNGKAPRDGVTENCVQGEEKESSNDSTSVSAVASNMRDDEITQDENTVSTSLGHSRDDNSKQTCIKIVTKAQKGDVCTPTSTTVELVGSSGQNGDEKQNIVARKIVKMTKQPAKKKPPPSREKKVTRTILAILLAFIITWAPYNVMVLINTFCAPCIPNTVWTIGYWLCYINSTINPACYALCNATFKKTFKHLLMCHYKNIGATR
Description: Binding to muscarinic receptors, whole heart (inhibition of specific 3H-NMS binding). On the set-up: species or system rat (Sprague-Dawley). The following applies: 0.3 nM 3H-NMS, 45 min, 30° C., pH 7.4, read-out: Receptor Binding Tests IC50, Heart. As to the method:
as §1, §2, §3, §4

Series [6] in a line: Testing for mydriasis (effect on pupil size). The following applies: rat, in vivo, iv; rats; pupil observed 10 minutes. As to the method:
The effect of the test substances on the pupil size in rats was investigated as follows:
The substances were administered intravenously to groups of 10 animals in at least three uniformly graduated doses. The pupil size was then observed for 10 minutes to see if there were any changes (mydriasis or miosis). […] The percentage of test animals in which mydriasis occurred was determined. The ED50 values were again determined during the method of LITCHFIELD and WILCOXON (see above).

Regarding `CN1[C@@H]2CC[C@H]1C[C@@H](CC(=O)N1c3ccccc3C(=O)Nc3cccnc31)C2` [B, endo-5,11-dihydro-11-[(8-methyl-8-azabicyclo[3.2.1]oct-3-yl)acetyl]-6H-pyrido[2,3-b][1,4]benzodiazepin-6-one], the IC50 in series [1] worked out at 50 nM; in series [4], 700 nM; in series [5], 150 nM. For the same compound, the “Oxotremorine Test, Anti-ulcerative Effect ED70” value in the series with muscarinic receptors [2] came out at 0.037 mg/kg. Further, the “Oxotremorine Test, Inhibition of Salivation ED50” value in the series on muscarinic receptors [3] stood at 0.3 mg/kg. Also, in series [6], it took a dose of 0.22 mg/kg to reach the 50% effect level (ED50 at 10 min).

Take `CN1CC=C(CC(=O)N2c3ccccc3C(=O)Nc3cccnc32)CC1` [A, 5,11-dihydro-11-[(1-methyl-1,2,5,6-tetrahydro-4-pyridinyl)acetyl]-6H-pyrido[2,3-b][1,4]benzodiazepin-6-one]: the IC50 in series [1] stood at 50 nM; in series [4] it was 200 nM; in series [5] it was 170 nM. Also, in the series with muscarinic receptors [2], the “Oxotremorine Test, Anti-ulcerative Effect ED50” value was determined as 0.0011 mg/kg. In the series with muscarinic receptors [2], the “Oxotremorine Test, Anti-ulcerative Effect ED70” value came out at 0.002 mg/kg. Further, the “Oxotremorine Test, Inhibition of Salivation ED50” value with muscarinic receptors [3] turned out to be 0.028 mg/kg. In series [6], this compound returned an ED50 at 10 min of 0.074 mg/kg.
